This is an account of results in US11629143B2, “HipK4 inhibitors and uses thereof” (Vibliome Therapeutics, LLC, priority 2020, dated 2023).

Holding throughout (assay): Kinase panel (mobility shift)
What all share (format): biochemical

One test has as its target T1, EPH-B2 (Homo sapiens, UniProt P29323).
T1 sequence (P29323 19-1055): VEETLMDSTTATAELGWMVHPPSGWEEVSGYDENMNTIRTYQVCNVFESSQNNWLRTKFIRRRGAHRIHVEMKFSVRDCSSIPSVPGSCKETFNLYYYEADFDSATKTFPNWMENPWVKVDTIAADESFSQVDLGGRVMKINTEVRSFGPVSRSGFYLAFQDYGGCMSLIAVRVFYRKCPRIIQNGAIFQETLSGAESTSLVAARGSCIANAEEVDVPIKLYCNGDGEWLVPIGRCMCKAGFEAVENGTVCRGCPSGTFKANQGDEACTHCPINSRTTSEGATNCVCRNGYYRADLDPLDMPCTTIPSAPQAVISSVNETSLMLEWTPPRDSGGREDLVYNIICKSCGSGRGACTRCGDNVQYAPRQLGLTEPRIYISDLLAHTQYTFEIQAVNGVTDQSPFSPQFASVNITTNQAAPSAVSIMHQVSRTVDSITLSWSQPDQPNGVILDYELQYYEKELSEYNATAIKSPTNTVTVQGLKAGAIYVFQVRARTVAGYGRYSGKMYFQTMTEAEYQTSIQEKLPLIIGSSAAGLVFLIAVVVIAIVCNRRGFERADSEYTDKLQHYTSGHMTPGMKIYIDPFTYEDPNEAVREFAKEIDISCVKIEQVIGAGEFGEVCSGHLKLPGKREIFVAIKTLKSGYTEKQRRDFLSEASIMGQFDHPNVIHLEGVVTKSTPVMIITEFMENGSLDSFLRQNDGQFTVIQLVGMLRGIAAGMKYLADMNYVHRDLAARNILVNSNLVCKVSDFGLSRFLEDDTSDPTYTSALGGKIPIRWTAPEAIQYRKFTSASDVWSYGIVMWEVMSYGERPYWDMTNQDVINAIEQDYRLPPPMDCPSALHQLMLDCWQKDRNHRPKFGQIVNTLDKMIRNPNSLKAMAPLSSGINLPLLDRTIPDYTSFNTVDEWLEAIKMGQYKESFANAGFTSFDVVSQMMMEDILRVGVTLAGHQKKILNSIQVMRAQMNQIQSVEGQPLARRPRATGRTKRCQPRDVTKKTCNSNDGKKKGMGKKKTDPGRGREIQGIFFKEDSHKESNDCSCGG
To be noted: at 5 um. The method, boiled down: (§1)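 Each kinase was incubated with a fluorescently labeled substrate and compound in a standard reaction mix. After the reaction was stopped, product and substrate were separated on microfluidic chips by electrophoretic mobility shift. Activity came from comparing product and substrate peak fluorescence, graded A (95% or greater), B (90%-94%) or C (80%-89%) at 5 um.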

The next test has as its target TRKA (Homo sapiens, UniProt P04629). In outline:
as §1

The next test deals with T2, EPH-B4 (Homo sapiens, UniProt P54760).
T2 sequence (P54760 16-987): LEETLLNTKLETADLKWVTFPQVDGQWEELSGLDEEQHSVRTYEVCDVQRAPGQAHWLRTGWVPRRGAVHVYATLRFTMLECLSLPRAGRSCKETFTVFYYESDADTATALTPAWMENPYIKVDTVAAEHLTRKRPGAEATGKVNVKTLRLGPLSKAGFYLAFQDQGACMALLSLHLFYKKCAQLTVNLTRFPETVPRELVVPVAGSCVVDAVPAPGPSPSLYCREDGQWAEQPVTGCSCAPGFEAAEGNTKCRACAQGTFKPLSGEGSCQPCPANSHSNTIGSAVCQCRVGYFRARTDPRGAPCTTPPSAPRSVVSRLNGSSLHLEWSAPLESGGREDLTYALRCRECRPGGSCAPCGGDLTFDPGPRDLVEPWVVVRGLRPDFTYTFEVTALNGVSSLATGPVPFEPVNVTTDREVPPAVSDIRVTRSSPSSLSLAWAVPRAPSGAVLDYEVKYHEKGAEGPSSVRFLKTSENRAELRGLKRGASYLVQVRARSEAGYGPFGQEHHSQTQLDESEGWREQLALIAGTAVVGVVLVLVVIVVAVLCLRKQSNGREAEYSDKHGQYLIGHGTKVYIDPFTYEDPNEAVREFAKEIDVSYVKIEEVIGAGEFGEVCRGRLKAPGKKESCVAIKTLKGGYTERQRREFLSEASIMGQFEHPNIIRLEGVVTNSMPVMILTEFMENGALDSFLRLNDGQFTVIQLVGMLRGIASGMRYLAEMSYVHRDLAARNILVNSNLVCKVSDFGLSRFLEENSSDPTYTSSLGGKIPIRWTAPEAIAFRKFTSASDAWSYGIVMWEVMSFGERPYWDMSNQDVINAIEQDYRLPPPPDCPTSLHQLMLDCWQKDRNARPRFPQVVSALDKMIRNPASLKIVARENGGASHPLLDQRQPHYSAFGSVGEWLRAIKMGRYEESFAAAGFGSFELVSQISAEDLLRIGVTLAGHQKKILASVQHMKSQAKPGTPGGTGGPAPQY
In outline: as §1

Each structure is given as a SMILES string. A value given as a limit tells only on which side of the number the result lay.

Chain of TRKA (P04629 33-796, species assumed): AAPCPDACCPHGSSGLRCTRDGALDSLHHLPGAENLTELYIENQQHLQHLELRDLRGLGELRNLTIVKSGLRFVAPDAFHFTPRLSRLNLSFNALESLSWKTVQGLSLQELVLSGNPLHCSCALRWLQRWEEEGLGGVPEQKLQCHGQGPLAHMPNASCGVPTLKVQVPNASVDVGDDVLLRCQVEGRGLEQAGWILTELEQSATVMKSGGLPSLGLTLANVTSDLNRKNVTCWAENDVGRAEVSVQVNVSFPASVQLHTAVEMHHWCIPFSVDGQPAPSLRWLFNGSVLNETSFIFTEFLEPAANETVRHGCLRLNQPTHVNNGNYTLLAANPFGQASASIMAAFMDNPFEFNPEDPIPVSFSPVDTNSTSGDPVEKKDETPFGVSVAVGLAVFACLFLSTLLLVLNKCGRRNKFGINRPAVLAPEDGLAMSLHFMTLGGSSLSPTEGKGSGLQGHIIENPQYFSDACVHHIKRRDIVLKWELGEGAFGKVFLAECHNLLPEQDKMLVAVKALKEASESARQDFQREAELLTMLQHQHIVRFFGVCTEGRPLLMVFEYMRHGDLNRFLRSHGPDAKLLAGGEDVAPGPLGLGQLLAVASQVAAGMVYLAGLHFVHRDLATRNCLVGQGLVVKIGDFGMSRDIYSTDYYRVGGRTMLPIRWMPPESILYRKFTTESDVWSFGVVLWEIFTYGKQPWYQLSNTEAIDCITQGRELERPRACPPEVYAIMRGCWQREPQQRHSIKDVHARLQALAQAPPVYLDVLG

With `CNC(=O)c1cc(Oc2ccc(NC(=O)c3nc(OC4CC4)oc3-c3ccc(F)cc3)cc2F)ccn1` [Compound 32], on EPH-B2, the “inhibition of kinase activity, EPH-B2” value is “D (category D for 50-79)”. In addition, the inhibition at 5 µM at TRKA and at EPH-B4 was 50 to 79% in each case.

Consider `[2H]C([2H])([2H])NC(=O)c1cc(Oc2ccc(NC(=O)c3nc(SC)oc3-c3ccc(F)c(F)c3)cc2F)ccn1` [Compound 33], for which, at EPH-B2, the “inhibition of kinase activity, EPH-B2” value is “E (category E is less than 50%)”. Also, the inhibition at 5 µM at TRKA was 50 to 79%; at EPH-B4, below 50%.

Regarding `CNC(=O)c1cc(Oc2ccc(NC(=O)c3nc(SC(C)C)oc3-c3ccc(F)cc3)cc2F)ccn1` [Compound 34], on EPH-B2, the “inhibition of kinase activity, EPH-B2” value is “C (C=80%-89% at 5 um)”. For the same compound, the inhibition at 5 µM on TRKA and at EPH-B4 was 80 to 89% each time.

On to `[2H]C([2H])([2H])NC(=O)c1cc(Oc2ccc(NC(=O)c3nc(SC)oc3-c3ccc(F)s3)cc2F)ccn1` [Compound 35], for which the “inhibition of kinase activity, EPH-B2” value at EPH-B2 is on record as “D (category D for 50-79)”. Also, the inhibition at 5 µM on TRKA and on EPH-B4 was below 50% throughout.

On to `CNC(=O)c1ccc(Oc2ccc(NC(=O)c3nc(Cl)oc3-c3ccc(F)cc3)c(F)c2)cn1` [Compound 36], for which, at EPH-B2, the “inhibition of kinase activity, EPH-B2” value is recorded as “E (category E is less than 50%)”. Besides, the inhibition at 5 µM on TRKA and on EPH-B4 was below 50% throughout.

As to `CSc1nc(C(=O)Nc2ccc(Oc3ccnc(C(=O)NC4COC4)c3)c(F)c2)c(-c2ccc(F)c(F)c2)o1` [Compound 37], the “inhibition of kinase activity, EPH-B2” value at EPH-B2 is “E (category E is less than 50%)”. Further, the inhibition at 5 µM on TRKA and on EPH-B4 was below 50% each time.

As to `CNC(=O)c1cc(Oc2ccc(NC(=O)c3nc(OCC(F)(F)F)oc3-c3ccc(F)cc3)cc2F)ccn1` [Compound 38], the “inhibition of kinase activity, EPH-B2” value on EPH-B2 was “E (category E is less than 50%)”. Besides, the inhibition at 5 µM at TRKA and on EPH-B4 was 50 to 79% in each case.

On to `COc1nc(C(=O)Nc2ccc(Oc3ccnc(C(=O)NC4COC4)c3)c(F)c2)c(-c2ccc(F)cc2)o1` [Compound 39], for which the “inhibition of kinase activity, EPH-B2” value at EPH-B2 was “E (category E is less than 50%)”. In addition, the inhibition at 5 µM on TRKA and on EPH-B4 was below 50% throughout.

As to `CSc1nc(C(=O)Nc2ccc(Oc3ccnc(C(=O)NCC(F)(F)F)c3)c(F)c2)c(-c2ccc(F)cc2)o1` [Compound 40], the “inhibition of kinase activity, EPH-B2” value at EPH-B2 is listed as “E (category E is less than 50%)”. For the same compound, the inhibition at 5 µM on TRKA and at EPH-B4 was below 50% each time.

Regarding `CSc1nc(C(=O)Nc2ccc(Oc3ccnc(C(=O)NCCN(C)C)c3)c(F)c2)c(-c2ccc(F)cc2)o1` [Compound 41], on EPH-B2, the “inhibition of kinase activity, EPH-B2” value is recorded as “D (category D for 50-79)”. The inhibition at 5 µM at TRKA and on EPH-B4 was below 50% each time.

With `CSc1nc(C(=O)Nc2ccc(Oc3ccnc(C(=O)NC4CCN(C)CC4)c3)c(F)c2)c(-c2ccc(F)cc2)o1` [Compound 42], on EPH-B2, the “inhibition of kinase activity, EPH-B2” value was “E (category E is less than 50%)”. In addition, the inhibition at 5 µM at TRKA and on EPH-B4 was below 50% in each case.

For the compound `COc1nc(C(=O)Nc2ccc(Oc3ccnc(C(=O)NCC(F)(F)F)c3)c(F)c2)c(-c2ccc(F)cc2)o1` [Compound 43], the “inhibition of kinase activity, EPH-B2” value at EPH-B2 is on record as “E (category E is less than 50%)”. Besides, the inhibition at 5 µM at TRKA and on EPH-B4 was below 50% each time.

As a reminder, the inhibition is the share of the control response that was lost under treatment.
